Where a name gives a salt, the structure may show the parent alone. Active and inactive are the calls of the source. Rule as the data show it, for most assays here: actives have a measured EC50 and inactives only a lower limit.
How the values were obtained:
[1] = Trypanosoma cruzi growth suppression in host cells – NIH3T3 host cells, beta-gal luminescence, confirmation (AID 2044); format: functional, cell-based;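 also: intracellular parasites grown in NIH/3T3 mouse fibroblasts as host cells; luminescent beta-galactosidase reporter signal from transgenic T. cruzi replicating inside host cells; inhibitors lower the luminescence signal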
[2] = NIH3T3 cell viability loss – ATP luminescence, mouse fibroblasts, counter-screen, dose response (AID 2010); format: functional, cell-based;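 also: cells exposed to compound for about 90 hours before reading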
[3] = tested on: H4; assay: Luminescence Cell-Based Dose Response HTS to Identify Activators of 5'UTR Stem-Loop Driven Prion Protein mRNA Translation in H4 Neuroglioblastoma Cells. [Related pubchem assays: 1829 (Project Summary), 1814 (Primary HTS)]; format: functional; details: Homo sapiens
[4] = Luminescence Cell-Based Dose Response HTS to Identify Activators of Luciferase Translation or Activity in H4 […] Cells. [Related pubchem assays: 1829 (Project Summary), 1814 (Primary HTS)]; format: functional
[5] = target: Cytochrome P450 3A4 (Homo sapiens, UniProt P08684);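 also: CYP3A4 tested as one member of a cytochrome P450 panel screen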
[6] = target: T1, Cytochrome P450 1A2 (Homo sapiens, UniProt P05177);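 also: PubChem cytochrome P450 panel assay, CYP1A2 panel member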
T1 sequence (P05177 whole entry): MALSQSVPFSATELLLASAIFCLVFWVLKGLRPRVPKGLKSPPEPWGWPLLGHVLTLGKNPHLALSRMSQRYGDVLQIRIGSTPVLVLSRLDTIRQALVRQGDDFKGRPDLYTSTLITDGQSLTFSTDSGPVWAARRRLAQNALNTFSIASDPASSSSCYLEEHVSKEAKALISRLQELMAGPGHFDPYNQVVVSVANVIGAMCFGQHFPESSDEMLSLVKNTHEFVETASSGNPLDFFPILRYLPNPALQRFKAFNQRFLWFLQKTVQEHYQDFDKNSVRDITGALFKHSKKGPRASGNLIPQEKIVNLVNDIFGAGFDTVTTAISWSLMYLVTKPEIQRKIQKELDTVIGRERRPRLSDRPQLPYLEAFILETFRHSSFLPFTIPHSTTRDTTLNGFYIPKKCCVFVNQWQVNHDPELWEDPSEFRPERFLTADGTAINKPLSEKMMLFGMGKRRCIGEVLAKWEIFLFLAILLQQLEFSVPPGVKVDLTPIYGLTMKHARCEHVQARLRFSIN

[7] = Luminescence Cell-Based Dose Confirmation HTS to Identify Activators of 5'UTR Stem-Loop Driven Alpha-Synuclein mRNA Translation in H4 Neuroglioblastoma Cells. [Related pubchem assays: 1829 (Project Summary), 1814 (Primary HTS)]; format: functional
[8] = target: T2, Corticotropin-releasing factor receptor 2/Corticotropin-releasing factor-binding protein (Homo sapiens, UniProt P24387+Q13324); assay: activators of CRF receptor 2 with binding protein – uHTS hits, confirmation (AID 602473); format: functional; details: read-out: EC50_Mean
T2 sequence (Q13324 whole entry): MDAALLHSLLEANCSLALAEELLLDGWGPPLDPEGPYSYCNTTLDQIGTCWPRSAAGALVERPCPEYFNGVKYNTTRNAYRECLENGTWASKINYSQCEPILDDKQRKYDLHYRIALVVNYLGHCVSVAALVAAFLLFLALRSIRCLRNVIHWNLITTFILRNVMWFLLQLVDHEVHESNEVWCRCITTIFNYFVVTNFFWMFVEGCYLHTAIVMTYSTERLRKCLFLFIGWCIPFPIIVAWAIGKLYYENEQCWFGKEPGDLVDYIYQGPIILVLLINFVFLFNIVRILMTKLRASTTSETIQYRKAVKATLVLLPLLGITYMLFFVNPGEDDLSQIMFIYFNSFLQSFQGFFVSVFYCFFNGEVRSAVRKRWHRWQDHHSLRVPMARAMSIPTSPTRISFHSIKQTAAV
T2 sequence (P24387 whole entry): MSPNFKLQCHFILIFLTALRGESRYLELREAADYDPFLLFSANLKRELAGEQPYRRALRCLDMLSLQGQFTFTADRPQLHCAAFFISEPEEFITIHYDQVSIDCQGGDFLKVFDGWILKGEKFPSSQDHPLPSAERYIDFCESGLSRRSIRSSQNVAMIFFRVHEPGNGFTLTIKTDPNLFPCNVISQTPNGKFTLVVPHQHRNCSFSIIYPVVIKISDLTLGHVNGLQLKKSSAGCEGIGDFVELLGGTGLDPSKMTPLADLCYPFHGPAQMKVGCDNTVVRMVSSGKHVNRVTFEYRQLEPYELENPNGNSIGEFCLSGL

Cytochrome P450 3A4, sequence (P08684 whole entry): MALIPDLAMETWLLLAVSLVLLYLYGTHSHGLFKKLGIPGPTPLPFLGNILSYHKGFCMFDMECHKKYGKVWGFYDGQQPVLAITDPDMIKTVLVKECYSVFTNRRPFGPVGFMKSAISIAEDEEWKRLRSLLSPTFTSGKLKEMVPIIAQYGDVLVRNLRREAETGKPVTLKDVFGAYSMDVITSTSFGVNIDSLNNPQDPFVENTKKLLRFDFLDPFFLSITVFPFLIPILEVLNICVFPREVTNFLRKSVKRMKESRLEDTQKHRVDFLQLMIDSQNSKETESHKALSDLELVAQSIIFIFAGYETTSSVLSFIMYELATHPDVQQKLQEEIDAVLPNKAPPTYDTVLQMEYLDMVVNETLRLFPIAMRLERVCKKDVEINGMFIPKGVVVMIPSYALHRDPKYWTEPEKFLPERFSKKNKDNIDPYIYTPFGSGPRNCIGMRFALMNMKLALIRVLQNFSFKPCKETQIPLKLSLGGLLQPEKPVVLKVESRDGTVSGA

In the case of Cc1[nH]c2ccc(-c3nnc(SCC(=O)N4CCCc5ccccc54)o3)cc2c1C, the EC50 [1] was 0.782 µM (active) and the EC50 [2] was > 60 µM (not active).
For Cc1ccc(NC(=O)CN2CCCCCC2)c(Br)c1, the EC50 [3] was 59.9 µM (active) and the EC50 [4] was 9.38 µM (active).
For Clc1ccc(CSc2nnc(-c3ccncc3)s2)cc1, the EC50 [1] was 2.14 µM (active) and the EC50 [2] was 26.3 µM (active).
With Cc1cc(C)c2c(N)c(C(=O)c3ccccc3Cl)sc2n1 the EC50 [1] was 0.1 µM (active) and the EC50 [2] was > 60 µM (not active).
With CO[C@@H]1COC(=O)[C@H](COCc2ccccc2)NC(=O)C/C=C\[C@@H](C)[C@H](OC)COC(=O)[C@@H](C)NC(=O)C/C=C\[C@H]1C the AC50 [5] was 3.16 µM (inconclusive).
With Cn1c(C(=O)OC(C(=O)NC2CCCC2)c2cccnc2)cc2sccc21 (stereo unspecified) the EC50 [1] was 0.489 µM (active) and the EC50 [2] was > 60 µM (not active).
In the case of CCN1CCN(c2ccc(S(=O)(=O)N3CCOCC3)cc2NC(=O)CCOc2ccccc2)CC1, the EC50 [1] was 1.26 µM (active) and the EC50 [2] was > 60 µM (not active).
With O[C@@H](c1cc(-c2ccccc2)nc2c1ccc1ccccc12)[C@@H]1CCCCN1 the AC50 [6] was 5.01 µM (inconclusive).
In the case of CO[C@@H]1COC(=O)C/C=C\[C@@H](C)COC(=O)[C@H](Cc2ccccc2)NC(=O)C/C=C\[C@H]1C, the AC50 [5] was 1.58 µM (inconclusive).
With Cc1ccc(NC2CCCN(C(=O)CSc3ccncc3)C2)cc1C (stereo unspecified) the EC50 [1] was 0.294 µM (active) and the EC50 [2] was > 60 µM (not active).
With COc1cc2c(cc1OC)[C@@H]1Cc3ccc(OC)c(OC)c3CN1CC2 the EC50 [1] was > 60 µM (not active) and the EC50 [2] was > 60 µM (not active).
With O=C(c1ccco1)N1CCn2c1nc1ccccc12 the EC50 [7] was 1.12 µM (active), the EC50 [3] was 6.26 µM (active) and the EC50 [4] was 35.3 µM (active).
For Oc1ccc2c3c1O[C@H]1c4oc5ccccc5c4C[C@]4(O)[C@H](C2)N(CC2CC2)CC[C@@]314, the AC50 [5] was 15.8 µM (inconclusive).
For COc1ccc(C(CNC(=O)c2cc(O)nc3ccccc23)N2CCCC2)cc1 (stereo unspecified), the AC50 [5] was 15.8 µM (inconclusive) and the AC50 [6] was 20 µM (inconclusive).
In the case of Cc1ccc(Cl)cc1N1CCN(CC(=O)Nc2ccc(CN3CCCCC3)cc2)CC1, the EC50 [1] was 1.31 µM (active) and the EC50 [2] was > 60 µM (not active).
For Cc1cccc(CSc2nc3c(cc2C#N)CN(C)CC3)c1, the EC50 [1] was 0.156 µM (active) and the EC50 [2] was > 30 µM (not active).
For O=c1c(CCc2ccccc2)nc2cnc(N3CCOCC3)nc2n1Cc1ccc(F)cc1, the AC50 [6] was 10 µM (inconclusive).
For Cc1nn(CC(O)COc2ccc3c(c2)CCC3)c(C)c1Br (stereo unspecified), the AC50 [5] was 15.8 µM (inconclusive).
With Cc1cccc2sc(N(CCN(C)C)C(=O)C3CCN(S(=O)(=O)c4cccs4)CC3)nc12 the EC50 [1] was 0.24 µM (active) and the EC50 [2] was > 60 µM (not active).
For c1ccc(Cn2c(Sc3nnnn3-c3ccccc3)nnc2-c2ccccc2)cc1, the EC50 [7] was > 120 µM (not active), the EC50 [3] was > 120 µM (not active) and the EC50 [4] was 11.9 µM (active).
For COc1ccc(CNN2CCCCC2C(=O)Nc2ccc(OC)c(OCC(C)C)c2)cc1OC (stereo unspecified), the EC50 [1] was > 60 µM (not active) and the EC50 [2] was > 60 µM (not active).
In the case of Cc1cc(N/C=C\C(=O)c2ccc(Cl)c(Cl)c2)no1, the EC50 [7] was 2.53 µM (active), the EC50 [3] was > 120 µM (not active) and the EC50 [4] was 15 µM (active).
For Cc1nc2c(ccc3nc(NC(=O)c4ccc5c(c4)OCCO5)sc32)s1, the EC50 [1] was 3.07 µM (active) and the EC50 [2] was > 30 µM (not active).
With COc1ccc(C(=O)N2CCC3(CCCN(Cc4nccs4)C3)CC2)cc1 the AC50 [5] was 7.94 µM (inconclusive).
For Cn1c(=O)cc(OCCCC(=O)N2CCN(c3ccccc3)CC2)c2ccccc21, the AC50 [5] was 1.12 µM (inconclusive) and the AC50 [6] was 15.8 µM (inconclusive).
In the case of CCOc1ccc(Nc2ncnc3c2nnn3Cc2ccccc2)cc1, the EC50 [7] was 17.7 µM (active), the EC50 [3] was 30.9 µM (active) and the EC50 [4] was 18.8 µM (active).
For O=C(Nn1cc(C(=O)N2CCN(c3ccccc3F)CC2)c2ccccc2c1=O)c1cnccn1, the AC50 [5] was 28.2 µM (inconclusive) and the AC50 [6] was 12.6 µM (inconclusive).
In the case of O=[N+]([O-])c1cc(-c2n(-c3ccccn3)c3ccccc3[n+]2-c2ccccn2)ccc1Cl, the EC50 [7] was 56.9 µM (active), the EC50 [3] was > 120 µM (not active) and the EC50 [4] was 14.2 µM (active).
For O=[N+]([O-])c1cccc(-c2cn(-c3ccccc3)c(S)n2)c1, the EC50 [7] was 5.64 µM (active), the EC50 [3] was > 120 µM (not active) and the EC50 [4] was > 120 µM (not active).
In the case of CCOC(=O)c1sc(NC(=O)c2cc(-c3ccccc3)nc3ccccc23)c(C#N)c1C, the EC50 [8] was 0.544 µM (active).
With Cc1nc(-c2ccncc2)nc(NCCNc2ncccc2C(F)(F)F)c1Cl the EC50 [1] was 0.364 µM (active) and the EC50 [2] was > 60 µM (not active).
In the case of Cc1ccc(NC(=O)CCSc2nnc3ccccn23)cc1, the AC50 [5] was 0.891 µM (inconclusive).
For O=C(C[n+]1c2n(c3ccc(C(F)(F)F)cc31)CCCCC2)c1ccc2c(c1)OCCO2, the EC50 [1] was 1.3 µM (active) and the EC50 [2] was > 60 µM (not active).
With CC(=O)Nc1cccc(OC(=O)c2ccoc2C)c1 the EC50 [8] was 4.9 µM (active).
With CN(C(=O)c1ccc(S(=O)(=O)NC2CCCC2)cc1)C1CCCCC1 the EC50 [8] was > 53 µM (inactive).
In the case of O=C(Nc1ccc(SC(F)F)cc1)c1ccc2c(=O)n3c(nc2c1)CCC3, the EC50 [8] was 1.4 µM (active).
With C=CCN1C(=O)NC(=O)/C(=C/c2cccn2C)C1=O the AC50 [6] was 15.8 µM (inconclusive).
In the case of O=C(CSc1nnc(-c2ccc(F)cc2)c2ccccc12)Nc1cccc(Cl)c1, the EC50 [1] was 2.16 µM (active) and the EC50 [2] was > 30 µM (not active).
For CN1CCN(CCCc2c3c(cc4c2CCC4)CCC3)CC1, the EC50 [1] was 0.601 µM (active) and the EC50 [2] was > 60 µM (not active).
With CCOC(=O)c1sc2ncnc(N3CCN(CC)CC3)c2c1C the EC50 [1] was 0.577 µM (active) and the EC50 [2] was > 60 µM (inconclusive).
In the case of c1cncc(-c2nc(NCc3ccc4c(c3)OCO4)c3ccccc3n2)c1, the EC50 [1] was 0.921 µM (active) and the EC50 [2] was > 30 µM (not active).
In the case of CCOC(=O)N1CC=C2C(C#N)=C(N)C(C#N)(C#N)[C@H](c3ccccc3OCC)[C@H]2C1, the EC50 [7] was > 120 µM (not active), the EC50 [3] was > 120 µM (not active) and the EC50 [4] was > 120 µM (not active).
For CN(C)c1ncc2nc(-c3ccc(F)cc3)c(=O)n(Cc3cccs3)c2n1, the AC50 [5] was 25.1 µM (inconclusive).
In the case of Cc1ccc(S(=O)(=O)Nc2cccc(C(=O)NC3CCN(Cc4ccccc4)CC3)c2)cc1F, the EC50 [1] was 1.12 µM (active) and the EC50 [2] was > 60 µM (not active).
In the case of NC(=O)c1c(NC(=O)CCCn2cnc([N+](=O)[O-])n2)sc2c1CCCC2, the EC50 [1] was 0.125 µM (active) and the EC50 [2] was > 60 µM (not active).
For CCc1ccc(N2CC(C(=O)NC3=NCCS3)CC2=O)cc1 (stereo unspecified), the AC50 [6] was 20 µM (inconclusive).
With Cc1ccc2c(c1)/C(=N/C1CCCCC1)c1cc3ccccc3nc1-2 the EC50 [7] was 14.9 µM (active), the EC50 [3] was 0.408 µM (active) and the EC50 [4] was 37.2 µM (active).
With N=C(N)NC(=O)c1nc(Cl)c(N)nc1N [AMILORIDE HYDROCHLORIDE] the AC50 [6] was 6.31 µM (inconclusive).
In the case of CNCCC=C1c2ccccc2CCc2ccccc21 [NORTRIPTYLINE], the AC50 [6] was 25.1 µM (inconclusive).
For CS(=O)(=O)Nc1ccc([N+](=O)[O-])cc1OC1CCCCC1 [NS-398], the AC50 [5] was 20 µM (inconclusive).
For C[C@@H](C(=O)O)c1ccc(-c2ccccc2)c(F)c1 [TARENFLURBIL], the AC50 [6] was 31.6 µM (inconclusive).
